The results in this text go back to the supplement of paper PMC11208160.
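Also: IS621 bridge recombinase in Escherichia coli cells against a fixed T5 target plasmid.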

The nature of this data set: recombinant UMI read abundance after kanamycin selection (control-corrected) (log10(CPM+1)); higher = more efficient recombination; extreme values may be limits of the assay; sequences stand for … in AGTGCAGAGAAAATCGGCCAGTTTTCTCTGCCTGCAGTCCGCATGCCGTGGGACCCCTTGGGTTCTAACCTGTTGCCTAGATTTATGCAGCGGACTGCCTTTCTCCCAAAGTGATAAACCGG…AGGTTGGTTTCACT; site = the 11-nt donor. A digest of the protocol:
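Sequenced counts of recombinant UMIs were turned into CPM, averaged across replicates and scaled with control-derived factors. The reported figure is log10(CPM+1). Those UMIs, each 12 nt long, tagged donor and donor-binding-loop pairs on a plasmid with a promoterless kanamycin gene, screened as a pool in Escherichia coli with IPTG (0.07 mM) plus kanamycin or without selection.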
For the sequence “GTATCTCCATGGACCGGTTTTCCCGGTAATCCGTATTTGAA (site GTATCTCCTTT)”, the “recombinant UMI read abundance (log10)” value is 1.19.
In the case of “GTATGAACATGGACCGGTTTTCCCGGTAATCCGTATTTGAG (site GTATGAACTCT)” it was 1.87; in that of “GTATGCACATGGACCGGTTTTCCCGGTAATCCGTATTTGGA (site GTATGCACTTA)”, 0.901; in that of “GTATGCACATGGACCGGTTTTCCCGGTAATCCGTATTTGGA (site GTATGCACTTC)”, 0.931.
In the case of “GTATGCACATGGACCGGTTTTCCCGGTAATCCGTATTTGGA (site GTATGCACTTG)” it was 0.783; in that of “GTATGCACATGGACCGGTTTTCCCGGTAATCCGTATTTGGA (site GTATGCACTTT)”, 0.924.
In the case of “GTATGGCCATGGACCGGTTTTCCCGGTAATCCGTATTTGCA (site GAATGGCCTTG)” it was 0; in that of “GTATGGCCATGGACCGGTTTTCCCGGTAATCCGTATTTGCA (site GCATGGCCTTG)”, 0; in that of “GTATGGCCATGGACCGGTTTTCCCGGTAATCCGTATTTGCA (site GGATGGCCTTG)”, 0.
In the case of “GTATGGCCATGGACCGGTTTTCCCGGTAATCCGTATTTGCA (site GTATGGCCTTG)”, the “recombinant UMI read abundance (log10)” value amounted to 0.
Consider “GTATGTTCATGGACCGGTTTTCCCGGTAATCCGTATTTGAG (site GTATGTTCTCT)”, for which the “recombinant UMI read abundance (log10)” value was determined as 2.52.
In the case of “GTATTACCATGGACCGGTTTTCCCGGTAATCCGTATTTGCA (site GTATTACCTTG)” it was 0; in that of “GTATTATCATGGACCGGTTTTCCCGGTAATCCGTATTTGAC (site CTAGTATCTGT)”, 1.38; in that of “GTATTATCATGGACCGGTTTTCCCGGTAATCCGTATTTGAC (site GTATTATCTGT)”, 2.66.
In the case of “GTCAAACCATGGACCGGTTTTCCCGGTAATCCGTATTTGGT (site GACAAACCTAC)” it was 0; in that of “GTCAAACCATGGACCGGTTTTCCCGGTAATCCGTATTTGGT (site GCCAAACCTAC)”, 0; in that of “GTCAAACCATGGACCGGTTTTCCCGGTAATCCGTATTTGGT (site GGCAAACCTAC)”, 0.
As to “GTCAAACCATGGACCGGTTTTCCCGGTAATCCGTATTTGGT (site GTCAAACCTAC)”, the “recombinant UMI read abundance (log10)” value was 0.
In the case of “GTCACACCATGGACCGGTTTTCCCGGTAATCCGTATTTGTT (site GTCACACCTAA)” it was 0.00382.
In the case of “GTCACGACATGGACCGGTTTTCCCGGTAATCCGTATTTGGT (site GTCACGACTAC)” it was 1.06; in that of “GTCACTGCATGGACCGGTTTTCCCGGTAATCCGTATTTGAT (site GTCACTGCTAT)”, 1.99; in that of “GTCAGAACATGGACCGGTTTTCCCGGTAATCCGTATTTGGC (site GTAAGAACTGC)”, 0.371.
In the case of “GTCAGAACATGGACCGGTTTTCCCGGTAATCCGTATTTGGC (site GTCAGAACTGC)” it was 1.57; in that of “GTCAGAACATGGACCGGTTTTCCCGGTAATCCGTATTTGGC (site GTGAGAACTGC)”, 0.
Take “GTCAGAACATGGACCGGTTTTCCCGGTAATCCGTATTTGGC (site GTTAGAACTGC)”: the “recombinant UMI read abundance (log10)” value is 0.
In the case of “GTCAGCCCATGGACCGGTTTTCCCGGTAATCCGTATTTGAC (site GTCAGCCCTGT)” it was 1.33; in that of “GTCAGCGCATGGACCGGTTTTCCCGGTAATCCGTATTTGGC (site GTCAGCGCTGC)”, 2.6; in that of “GTCATAGCATGGACCGGTTTTCCCGGTAATCCGTATTTGTT (site GTCATAGCTAA)”, 2.1.
In the case of “GTCATCGCATGGACCGGTTTTCCCGGTAATCCGTATTTGCC (site GTCATCGCTGG)” it was 2.35.
